# Measured values as given in patent publication US9321838B2, “Therapy targeting cathepsin S” (Fusion Antibodies Limited, priority 2006, dated 2016).
# Key:
# [1] = system: RKO+/+ cells; experiment: RT semi quantitative PCR of CatS mRNA with/without CPT11; assay type: cell-based, human; conditions: 7.5 μM CPT11, 48 hour; treated vs untreated
# [2] = system: HCT116+/+ cells; experiment: as above; assay type: cell-based, human; conditions: 7.5 μM CPT11, 48 hour; treated vs untreated
# [3] = system: RKO+/+ cells; experiment: western blot of CatS in whole cell lysates with/without CPT11; assay type: cell-based, human; conditions: 48 hour CPT11 treatment (7.5 μM), whole cell lysate
# Procedure: (§1) Cells were washed in PBS (5 minute centrifugation at 1500 rpm) prior to lysis with RIPA buffer containing a protease inhibitor cocktail (Calbiochem, UK) as previously described. Whole cell lysates were loaded onto 12% SDS-PAGE gels at equal concentrations. Gels were run overnight at 50V prior to semi-dry transfer onto nitrocellulose membrane at 20V for 45 minutes (BioRad, UK). The nitrocellulose membrane was blocked using PBS (3% Milk powder) for ˜1 hour, and washed ×3 with PBS (0.01% tween) for 5 minutes. The membrane was then probed with a 1 in 1000 dilution of CatS Mab (1E4 Mab or 1E11 Mab) in PBS (3% Milk powder) for 1 hour. The membrane was washed ×3 with PBS (0.01% tween) for 5 minutes prior to the addition of a 1 in 5000 dilution of secondary goat anti mouse-HRP conjugated antibody (BioRad, UK) in PBS (3% Milk powder) for 1 hour. This was then washed three times in PBS (0.01% tween) for 5 minutes each. The membrane was ‘developed’ by ECL (enhanced chemiluminescence) using the Super Signal kit (Pierce). The membrane was incubated in ECL solution for 5 minutes, prior to exposure to photographic film for various time periods. The photographic film was washed in developer solution (Sigma, UK) for 1 minute, rinsed with water, and washed in fixer solution (Sigma, UK) again for 1 minute before being rinsed and dried. […]
# [4] = system: HCT116+/+ cells; experiment: as above; assay type: cell-based, human; conditions: 48 hour CPT11 treatment (7.5 μM), whole cell lysate
# Procedure: as §1
# [5] = system: RKO+/+ cells; experiment: flow cytometry of CatS cell surface expression with/without CPT11; assay type: cell-based, human; conditions: CPT11 48 hour treated; basal 38%
# Procedure: (§2) Cells were collected from tissue culture plates using a scraper and washed ×3 in PBS (0.01% tween) (5 minute centrifugation at 1500 rpm). Approximately 5×10^5 cells were placed in appropriately labelled tubes. Cells were incubated with 50 μl anti-CatS or Isotype control (Sigma, UK) for 1 hour at room temperature. Following incubation each tube was washed ×3 in PBS (0.01% tween) (5 minute centrifugation at 1500 rpm). Samples were then incubated with a 1 in 15 dilution of FITC-conjugated goat anti-mouse secondary antibody (Sigma, UK) (samples kept in dark at room temperature). Following incubation each tube was washed ×3 in PBS (0.01% tween) (5 minute centrifugation at 1500 rpm). Samples were resuspended in 0.5 ml of PBS prior to immediate analysis using the Cyan flow cytometer (Dako, UK). Cell surface expression of CatS was examined using flow Cytometry.
# [6] = system: HCT116+/+ cells; experiment: as above; assay type: cell-based, human; conditions: CPT11 48 hour treated; basal 39%
# Procedure: as §2
# [7] = system: H630 p53 mutant cells; experiment: as above; assay type: cell-based, human; conditions: CPT11 48 hour treated; basal 37%
# Procedure: as §2
# [8] = system: other cathepsins; conditions: at higher concentrations; cited from earlier work
# [9] = system: U251MG grade IV glioblastoma cell line; conditions: U251MG cells, in the presence of the Cat S inhibitor; cited from earlier work
# [10] = system: HCT116+/+ human colorectal adenocarcinoma xenograft; experiment: HCT116+/+ xenograft model, immunohistochemistry of tumour sections; assay type: in vivo, SCID mice; conditions: 15 mg/kg; sections stained with CatS 1E11 mAb; vs untreated
# Procedure: 6-8 week old female SCID mice were implanted with 2×10^6 HCT116+/+ human colorectal adenocarcinoma cells into each flank. […] They were mixed with equal volumes of matrigel to give a final concentration of 5×10^6 cells/ml. Mice were randomly separated into treatment groups on day 5 after implantation and treated with various regimes of CatS Mab or Isotype control Mab (10 mg/kg) with/without 5Fu (15 mg/kg daily or 70 mg/kg twice weekly). All drugs were administered through a bolus injection. Animals were sacrificed at various time points and tumours were removed for analysis.
# Paraffin embedding of formalin-fixed xenograft/organ tissue samples, section cutting and H&E (haematoxylin and eosin) staining of tissue sections were performed as previously described. Immunostaining was performed using the avidin-horseradish peroxidase method (Vectorlabs ABC Kit).
# Briefly, sections were deparaffinised by passing from xylene to alcohol to running water. Endogenous peroxidase activity was blocked by incubation in 3% H2O2 in methanol for 10 min. Sections were then boiled in citrate buffer, pH6.0, for 22 min. Incubation in 5% normal horse serum blocking solution was carried out for 20 min at room temp. Sections were incubated with primary antibody at 4° C. overnight. Appropriate isotype controls were used at the same dilutions as primary antibodies. […]
smiles,measurement,setting,value
"CCc1c2c(nc3ccc(OC(=O)N4CCC(N5CCCCC5)CC4)cc13)-c1cc3c(c(=O)n1C2)COC(=O)[C@]3(O)CC [CPT11, Irinotecan]",CatS mRNA expression in response to chemotherapy,[1],increase in expression
same,CatS mRNA expression in response to chemotherapy,[2],increase in expression
same,"CatS whole protein expression, treated vs untreated",[3],no obvious difference in whole protein expression levels
same,"CatS whole protein expression, treated vs untreated",[4],no obvious difference in whole protein expression levels
same,positive CatS cell surface expression following chemotherapy induction,[5],49%
same,positive CatS cell surface expression following chemotherapy induction,[6],59%
same,positive CatS cell surface expression following chemotherapy induction,[7],41%
"CC(C)C[C@H](NC(=O)N1CCOCC1)C(=O)N[C@H](/C=C/S(=O)(=O)c1ccccc1)CCc1ccccc1 [LHVS, 4-Morpholineurea-Leu-HomoPhe-vinylsulphone]",inhibition of other cathepsins,[8],inhibit other cathepsins when used at higher concentrations
same,reduction in invasion,[9],61%
"O=c1[nH]cc(F)c(=O)[nH]1 [5-Fu, Fluorouracil, reference compound]",CatS expression in tumour sections from treated mice,[10],upregulation in CatS expression
